This note sets out measurements from patent US11554171B2, “Compounds and methods for the targeted degradation of bromodomain-containing proteins” (Arvinas Operations, Inc., priority 2015, dated 2023).

The test system of this assay is c-myc in 22RV-1 cells. The assay can be described thus: Human c-myc ELISA assay. In kind it is cell-based. The settings on record: Homo sapiens; for Emax: 22Rv1, 18 h, read-out: Degradation of BRD4: Maximum inhibition (%) c-Myc ELISA in 22RV1 cells; for DC50: 22Rv1, read-out: Degradation of BRD4: DC50 (uM) c-Myc ELISA in 22RV1 cells. Put shortly: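 c-myc levels measured by ELISA in RIPA lysates of 22RV-1 cells, calibrated with a 333-0 pg/ml standard curve. Lysates came from cells exposed for 18 h to an 8-point, 1:3 dose series starting at 300 nM or 1 μM final in 0.1% DMSO. Suppression potency given as DC50.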

As usually defined, the DC50 is the concentration at which degradation of the target reaches its halfway point. On to `Cc1ncsc1-c1ccc([C@H](C)NC(=O)[C@@H]2C[C@@H](O)CN2C(=O)[C@@H](NC(=O)COc2ccc(N3CC(NC(=O)C[C@@H]4N=C(c5ccc(Cl)cc5)c5c(sc(C)c5C)-n5c(C)nnc54)C3)nc2)C(C)(C)C)cc1` [Example 251, (2S,4R)-1-[(2S)-2-(2-{[6-(3-{2-[(9S)-7-(4-chlorophenyl)-4,5,13-trimethyl-3-thia-1,8,11,12-tetraazatricyclo[8.3.0.0^2,^6]trideca-2(6),4,7,10,12-pentaen-9-yl]acetamido}azetidin-1-yl)pyridin-3-yl]oxy}acetamido)-3,3-dimethylbutanoyl]-4-hydroxy-N-[(1S)-1-[4-(4-methyl-1,3-thiazol-5-yl)phenyl]ethyl]pyrrolidine-2-carboxamide], for which the Emax is 92.3% and the DC50 is less than 0.01 µM.

Consider `Cc1ncsc1-c1ccc([C@H](C)NC(=O)[C@@H]2C[C@@H](O)CN2C(=O)[C@H](C(C)C)n2cc(-c3cc(F)cc(O[C@H]4C[C@@H](NC(=O)C[C@@H]5N=C(c6ccc(Cl)cc6)c6c(sc(C)c6C)-n6c(C)nnc65)C4)c3)cn2)cc1` [Example 252], for which the Emax is 97.5% and the DC50 was less than 0.01 µM.

Turning to `Cc1ncsc1-c1ccc([C@H](C)NC(=O)[C@@H]2C[C@@H](O)CN2C(=O)[C@@H](C(C)C)n2cc(-c3cc(F)cc(O[C@H]4C[C@H](NC(=O)C[C@@H]5N=C(c6ccc(Cl)cc6)c6c(sc(C)c6C)-n6c(C)nnc65)C4)c3)cn2)cc1` [Example 253], the Emax was 33.4% and the DC50 is more than 1 µM.

For `Cc1ncsc1-c1ccc([C@H](C)NC(=O)[C@@H]2C[C@@H](O)CN2C(=O)[C@H](C(C)C)n2cc(-c3cc(F)cc(O[C@H]4C[C@H](NC(=O)C[C@@H]5N=C(c6ccc(Cl)cc6)c6c(sc(C)c6C)-n6c(C)nnc65)C4)c3)cn2)cc1` [Example 254], the Emax is 95.4% and the DC50 is less than 0.01 µM.

For `Cc1ncsc1-c1ccc([C@H](C)NC(=O)[C@@H]2C[C@@H](O)CN2C(=O)[C@@H](C(C)C)n2cc(-c3ccc(N4CC(NC(=O)C[C@@H]5N=C(c6ccc(Cl)cc6)c6c(sc(C)c6C)-n6c(C)nnc65)C4)nc3)cn2)cc1` [Example 255], the Emax worked out at 35.5% and the DC50 is more than 1 µM.

For the compound `Cc1ncsc1-c1ccc([C@H](C)NC(=O)[C@@H]2C[C@@H](O)CN2C(=O)[C@@H](NC(=O)CO[C@H]2C[C@H](OCCNC(=O)C[C@@H]3N=C(c4ccc(Cl)cc4)c4c(sc(C)c4C)-n4c(C)nnc43)C2)C(C)(C)C)cc1` [Example 256], the Emax is 89.5% and the DC50 was less than 0.01 µM.

For the compound `Cc1ncsc1-c1ccc([C@H](C)NC(=O)[C@@H]2C[C@@H](O)CN2C(=O)[C@@H](NC(=O)CN2CCC(O[C@H]3C[C@@H](NC(=O)C[C@@H]4N=C(c5ccc(Cl)cc5)c5c(sc(C)c5C)-n5c(C)nnc54)C3)CC2)C(C)(C)C)cc1` [Example 257, (2S,4R)-1-[(2S)-3,3-dimethyl-2-(2-{4-[(1,3-cis)-3-{2-[(9S)-7-(4-chlorophenyl)-4,5,13-trimethyl-3-thia-1,8,11,12-tetraazatricyclo[8.3.0.0^2,^6]trideca-2(6),4,7,10,12-pentaen-9-yl]acetamido}cyclobutoxy]piperidin-1-yl}acetamido)butanoyl]-4-hydroxy-N-[(1S)-1-[4-(4-methyl-1,3-thiazol-5-yl)phenyl]ethyl]pyrrolidine-2-carboxamide], the Emax was found to be 87% and the DC50 was in the range of 0.01 to 0.1 µM.

Turning to `Cc1ncoc1-c1ccc(CNC(=O)[C@@H]2C[C@@H](O)CN2C(=O)[C@@H](NC(=O)COc2ccc(O[C@H]3C[C@@H](NC(=O)C[C@@H]4N=C(c5ccc(Cl)cc5)c5c(sc(C)c5C)-n5c(C)nnc54)C3)nc2)C(C)(C)C)cc1` [Example 258], the Emax stood at 87.5% and the DC50 is 0.01 to 0.1 µM.

For the compound `Cc1sc2c(c1C)C(c1ccc(Cl)cc1)=N[C@@H](CC(=O)N[C@H]1C[C@@H](Oc3ccc(OCC(=O)N[C@H](C(=O)N4C[C@H](O)C[C@H]4C(=O)N[C@@H](C)c4ccc(-n5ccnc5C)cc4)C(C)(C)C)cn3)C1)c1nnc(C)n1-2` [Example 259], the Emax is 65.7% and the DC50 is 0.1 to 1 µM.

As for `Cc1sc2c(c1C)C(c1ccc(Cl)cc1)=N[C@@H](CC(=O)N[C@H]1C[C@@H](Oc3ccc(OCC(=O)N[C@H](C(=O)N4C[C@H](O)C[C@H]4C(=O)N[C@@H](C)c4ccc(-c5nccn5C)cc4)C(C)(C)C)cn3)C1)c1nnc(C)n1-2` [Example 260], the Emax came to 13% and the 50% degradation concentration (DC50) is more than 1 µM.

On to `Cc1sc2c(c1C)C(c1ccc(Cl)cc1)=N[C@@H](CC(=O)N[C@H]1C[C@@H](Oc3ccc4oc(C(=O)N[C@H](C(=O)N5C[C@H](O)C[C@H]5C(=O)N[C@@H](C)c5ccc(-n6ccnc6C)cc5)C(C)(C)C)cc4c3)C1)c1nnc(C)n1-2` [Example 261], for which the Emax was 92.7% and the DC50 lay in the range of 0.01 to 0.1 µM.

In the case of `Cc1sc2c(c1C)C(c1ccc(Cl)cc1)=N[C@@H](CC(=O)N[C@H]1C[C@@H](Oc3ccc4oc(C(=O)N[C@H](C(=O)N5C[C@H](O)C[C@H]5C(=O)N[C@@H](C)c5ccc(-c6nccn6C)cc5)C(C)(C)C)cc4c3)C1)c1nnc(C)n1-2` [Example 262], the Emax came out at 55.5% and the DC50 was in the range of 0.1 to 1 µM.

On to `Cc1ncsc1-c1ccc([C@H](C)NC(=O)[C@@H]2C[C@@H](O)CN2C(=O)[C@@H](C(C)C)n2cc(-c3ccnc(N4CC[C@H](NC(=O)C[C@@H]5N=C(c6ccc(Cl)cc6)c6c(sc(C)c6C)-n6c(C)nnc65)C4)c3)cn2)cc1` [Example 263], for which the Emax worked out at 23.5% and the DC50 was more than 1 µM.

Consider `Cc1ncsc1-c1ccc([C@H](C)NC(=O)[C@@H]2C[C@@H](O)CN2C(=O)[C@H](C(C)C)n2cc(-c3ccnc(N4CC[C@H](NC(=O)C[C@@H]5N=C(c6ccc(Cl)cc6)c6c(sc(C)c6C)-n6c(C)nnc65)C4)c3)cn2)cc1` [Example 264], for which the Emax turned out to be 97% and the DC50 is less than 0.01 µM.

With `Cc1ncsc1-c1ccc([C@H](C)NC(=O)[C@@H]2C[C@@H](O)CN2C(=O)[C@H](C(C)C)n2cc(-c3ccc(N4CC(NC(=O)C[C@@H]5N=C(c6ccc(Cl)cc6)c6c(sc(C)c6C)-n6c(C)nnc65)C4)nc3)cn2)cc1` [Example 265], the Emax was 95.9% and the DC50 fell in the range of 0.01 to 0.1 µM.

Turning to `Cc1ncsc1-c1ccc([C@H](C)NC(=O)[C@@H]2C[C@@H](O)CN2C(=O)[C@H](C(C)C)n2cc(-c3ccnc(N4CC[C@@H](NC(=O)C[C@@H]5N=C(c6ccc(Cl)cc6)c6c(sc(C)c6C)-n6c(C)nnc65)C4)c3)cn2)cc1` [Example 266], the Emax is 97% and the DC50 was less than 0.01 µM.

Regarding `Cc1ncsc1-c1ccc([C@H](C)NC(=O)[C@@H]2C[C@@H](O)CN2C(=O)[C@@H](C(C)C)n2cc(-c3ccnc(N4CC[C@@H](NC(=O)C[C@@H]5N=C(c6ccc(Cl)cc6)c6c(sc(C)c6C)-n6c(C)nnc65)C4)c3)cn2)cc1` [Example 267], the Emax came out at 51.4% and the DC50 was more than 1 µM.

In the case of `Cc1ncsc1-c1ccc([C@H](C)NC(=O)[C@@H]2C[C@@H](O)CN2C(=O)[C@@H](C(C)C)n2cc(-c3ccc(O[C@H]4C[C@H](NC(=O)C[C@@H]5N=C(c6ccc(Cl)cc6)c6c(sc(C)c6C)-n6c(C)nnc65)C4)nc3)cn2)cc1` [Example 268], the Emax was determined as 98% and the DC50 lay within 0.01 to 0.1 µM.

Regarding `Cc1ncsc1-c1ccc([C@H](C)NC(=O)[C@@H]2C[C@@H](O)CN2C(=O)[C@H](C(C)C)n2cc(-c3ccc(O[C@H]4C[C@H](NC(=O)C[C@@H]5N=C(c6ccc(Cl)cc6)c6c(sc(C)c6C)-n6c(C)nnc65)C4)nc3)cn2)cc1` [Example 269], the Emax was 96.4% and the DC50 was less than 0.01 µM.

In the case of `Cc1ncsc1-c1ccc([C@H](C)NC(=O)[C@@H]2C[C@@H](O)CN2C(=O)[C@@H](NC(=O)Cc2ccc(O[C@H]3C[C@@H](NC(=O)C[C@@H]4N=C(c5ccc(Cl)cc5)c5c(sc(C)c5C)-n5c(C)nnc54)C3)nc2)C(C)(C)C)cc1` [Example 270, (2S,4R)-1-[(2S)-3,3-dimethyl-2-(2-{6-[(1,3cis)-3-{2-[(9S)-7-(4-chlorophenyl)-4,5,13-trimethyl-3-thia-1,8,11,12-tetraazatricyclo[8.3.0.0^2,^6]trideca-2(6),4,7,10,12-pentaen-9-yl]acetamido}cyclobutoxy]pyridin-3-yl}acetamido)butanoyl]-4-hydroxy-N-[(1S)-1-[4-(4-methyl-1,3-thiazol-5-yl)phenyl]ethyl]pyrrolidine-2-carboxamide], the Emax came out at 92.2% and the DC50 is less than 0.01 µM.

For the compound `Cc1noc(-c2ccc([C@H](C)NC(=O)[C@@H]3C[C@@H](O)CN3C(=O)[C@@H](NC(=O)COc3ccc(O[C@H]4C[C@@H](NC(=O)C[C@@H]5N=C(c6ccc(Cl)cc6)c6c(sc(C)c6C)-n6c(C)nnc65)C4)nc3)C(C)(C)C)cc2)n1` [Example 271], the Emax was 96.4% and the half-maximal degradation concentration (DC50) was less than 0.01 µM.

Consider `Cc1sc2c(c1C)C(c1ccc(Cl)cc1)=N[C@@H](CC(=O)N[C@H]1C[C@H](Oc3ccc(CC(=O)N[C@H](C(=O)N4C[C@H](O)C[C@H]4C(=O)N[C@@H](C)c4ccc(-n5ccnc5C)cc4)C(C)(C)C)cc3)C1)c1nnc(C)n1-2` [Example 272], for which the Emax was 95.9% and the DC50 was in the range of 0.01 to 0.1 µM.

Take `Cc1sc2c(c1C)C(c1ccc(Cl)cc1)=N[C@@H](CC(=O)N[C@H]1C[C@H](Oc3ccc(CC(=O)N[C@H](C(=O)N4C[C@H](O)C[C@H]4C(=O)N[C@@H](C)c4ccc(-c5nccn5C)cc4)C(C)(C)C)cc3)C1)c1nnc(C)n1-2` [Example 273]: the Emax was less than 5% and the DC50 was more than 1 µM.

Turning to `Cc1ncoc1-c1ccc([C@H](C)NC(=O)[C@@H]2C[C@@H](O)CN2C(=O)[C@@H](NC(=O)Cc2ccc(O[C@H]3C[C@H](NC(=O)C[C@@H]4N=C(c5ccc(Cl)cc5)c5c(sc(C)c5C)-n5c(C)nnc54)C3)cc2)C(C)(C)C)cc1` [Example 274], the Emax stood at 95.4% and the DC50 was less than 0.01 µM.
